Our source for the IC50 values is ChEMBL document CHEMBL1139343, “Pharmacophore guided discovery of small-molecule human apurinic/apyrimidinic endonuclease 1 inhibitors” (J Med Chem, 2009).

A value given as a limit tells only on which side of the number the result lay.

The target of the test is DNA repair nuclease/redox regulator APEX1 (Homo sapiens, UniProt P27695). Nature of the test: Inhibition of purified human recombinant APE1 expressed in Escherichia coli M15 cells.
Chain of DNA repair nuclease/redox regulator APEX1 (P27695 whole entry): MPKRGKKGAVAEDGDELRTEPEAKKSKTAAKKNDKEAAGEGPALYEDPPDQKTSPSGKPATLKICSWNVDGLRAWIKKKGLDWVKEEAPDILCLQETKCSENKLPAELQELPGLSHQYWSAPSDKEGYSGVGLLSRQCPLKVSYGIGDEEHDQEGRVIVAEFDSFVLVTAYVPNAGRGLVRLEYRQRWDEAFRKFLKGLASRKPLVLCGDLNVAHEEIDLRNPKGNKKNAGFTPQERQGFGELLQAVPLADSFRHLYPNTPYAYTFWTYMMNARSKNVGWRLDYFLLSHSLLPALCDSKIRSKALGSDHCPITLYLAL

For the molecule `COc1ccc(S(=O)(=O)N2CCC(C(=O)O)CC2)cc1C(=O)O`, the IC50 amounted to 30 µM. Then `CC(C)c1nnc(NC(=O)C2CCCN2S(=O)(=O)c2ccc(F)cc2)s1` (configuration not stated), with > 100 µM. As for `O=C(O)CC(CC(=O)Nc1nnn[nH]1)c1ccccc1` (configuration not stated), the IC50 stood at 30 µM. Turning to `Cc1oc(C(=O)O)cc1CSCc1cc(C(=O)O)oc1C`, the IC50 is 40 µM. Then `CCCS(=O)(=O)N1CCCC(c2nc(-c3ccc(C(C)C)cc3)no2)C1` (configuration not stated), with > 100 µM; and `O=C(CN1C(=O)c2ccccc2S1(=O)=O)Nc1ccc(Cl)c(C(=O)O)c1`, with > 100 µM. For the molecule `CC1(C)C(C(=O)O)N2C(=O)C(NC(=O)C(C(=O)O)c3ccccc3)C2[S+]1[O-]` (configuration not stated), the IC50 was > 100 µM. Then `CN(C)c1ccc(-c2noc(C3CCN(S(=O)(=O)c4cccc(C(=O)O)c4)CC3)n2)cc1`, with 40 µM; and `O=C(O)CCC1(CCC(=O)O)CCCCC1=O`, with > 100 µM.

As for `Cc1ccccc1NC(=O)c1cccc(NC(=O)CCC(=O)O)c1`, the IC50 was found to be 35 µM.

As to `CN(c1ccc(C(=O)Nc2ccc(F)cc2)cc1)S(=O)(=O)c1ccccc1`, the IC50 was > 100 µM. Take `Cc1ccc2c(c1)c1nnc(SCc3ccc(CC(=O)O)cc3)nc1n2C(=O)O`: the IC50 is 15 µM.

As for `O=[N+]([O-])c1ccccc1-c1nnc(CSc2nnc(-c3ccccc3O)o2)o1`, the IC50 was > 100 µM. Then `O=C(O)CCNc1ccc(Br)cc1C(=O)O`, with 32 µM. Next, `O=C(O)CCn1c(=S)n(CCC(=O)O)c2ccccc21`: 15 µM.

Consider `C=CCn1c(Cc2ccccc2)nnc1SCC(=O)Nc1nnc(C)s1`, for which the IC50 is > 100 µM. Then `O=C(O)c1ccc(Oc2ccc(S(=O)(=O)c3ccc(C(=O)O)c(C(=O)O)c3)cc2)cc1`, with 10 µM; and `Cc1ccc(-c2ccc(CCC(=O)O)n2CC(=O)O)cc1`, with 12 µM. Next, `Cc1ccc(OCc2ccoc2C(=O)O)cc1C`: 11 µM; `CCC(=O)N(Cc1ccc(S(N)(=O)=O)cc1)C1CC(=O)N(c2ccccc2)C1=O` (configuration not stated): > 100 µM. Then `O=C(O)CC[S+]([O-])CCC(=O)O`, with 40 µM; and `CC(C)(C)NS(=O)(=O)c1ccc2oc3ccc(S(=O)(=O)NC(C)(C)C)cc3c2c1`, with > 100 µM; and `CCc1cc2c(=O)c(-c3nc4ccccc4s3)c(C)oc2cc1OS(C)(=O)=O`, with > 100 µM. `O=S(=O)(O)c1cc(O)c2c(S(=O)(=O)O)cc(S(=O)(=O)O)cc2c1`: the IC50 was > 100 µM. As for `Cc1cc(S(=O)(=O)N2CCOCC2)ccc1OCC(=O)N1CCCC1`, the IC50 is > 100 µM. On to `COc1cc(S(=O)(=O)N(Cc2cccnc2)Cc2ccccc2Cl)ccc1-n1cnnn1`, for which the IC50 was > 100 µM.

Consider `CCOc1cc(-n2cnnn2)c(OCC)cc1NC(=O)c1cc2cccc(OC)c2oc1=O`, for which the IC50 is > 100 µM. Then `Cn1c(CCNS(=O)(=O)c2ccccc2)nnc1SCc1cccnc1`, with > 100 µM; and `CCOc1cc(S(=O)(=O)NCc2ccc3c(c2)OCO3)c(OCC)cc1-n1cnnn1`, with > 100 µM. Turning to `O=C(O)CSc1ccc(C(=O)O)cc1[N+](=O)[O-]`, the IC50 was 100 µM.

On to `Cc1cc(C)nc(SCc2nnc(SCC(=O)N3CCCCC3)n2-c2ccccc2)n1`, for which the IC50 was > 100 µM. Then `O=C(O)c1cccc(S(=O)(=O)N2CCCC(c3nc(O)c4nnn(Cc5ccc(F)cc5)c4n3)C2)c1` (configuration not stated), with 33 µM; and `O=S(=O)(c1cc(S(=O)(=O)N2CCOCC2)c2n[n+]3c4cc(S(=O)(=O)N5CCOCC5)cc(S(=O)(=O)N5CCOCC5)c4[n-]n3c2c1)N1CCOCC1`, with > 100 µM. As for `O=C(CN(Cc1cccs1)S(=O)(=O)c1ccc(S(=O)(=O)NC2CC2)cc1)Nc1ccccc1`, the IC50 was > 100 µM. `O=C(O)CSc1cc(-c2ccccc2)nc(SCC(=O)O)n1`: the IC50 amounted to 19 µM. Next, `C=CCSc1nnc(-c2ccc(NS(C)(=O)=O)cc2)n1C`: > 100 µM; `Cc1cc(S(=O)(=O)N2CCOCC2)ccc1OCC(=O)O`: 100 µM; `Cc1ccc(-c2noc(CNC(=O)CN(C)S(=O)(=O)c3ccc4ccccc4c3)n2)cc1`: > 100 µM. Then `O=C(Nc1nnc(CCS(=O)(=O)c2ccc3ccccc3c2)s1)c1ccccc1Cl`, with > 100 µM. `Cc1cc(S(=O)(=O)N2CCc3ccccc32)ccc1OCC(=O)NCc1ccccn1`: the IC50 is > 100 µM. Then `COC(=O)COc1ccc(S(=O)(=O)N2CCCCC2)cc1C`, with > 100 µM; and `O=C(c1ccc2c(c1)C(=O)N(c1ccccc1C(=O)O)C2=O)c1ccc2c(c1)C(=O)N(c1ccccc1C(=O)O)C2=O`, with 8 µM.

Take `O=S(=O)(O)CCCSc1sc2ccccc2[n+]1CCCS(=O)(=O)O`: the IC50 is > 100 µM. Next, `COc1ccc(NS(=O)(=O)c2ccc(NC(=O)c3ccccc3C(=O)O)cc2)nn1`: > 100 µM; `CCn1c(SCCN2CCCC2)nnc1C1CCCN(S(C)(=O)=O)C1` (configuration not stated): > 100 µM; `Cc1ccc(S(=O)(=O)CCc2nnc(NC(=O)CCc3ccccc3)s2)cc1`: > 100 µM. On to `CCN(CC)S(=O)(=O)c1cccc(C(=O)Nc2ccccc2C(=O)O)c1`, for which the IC50 was 100 µM. In the case of `Cc1cc(C(=O)O)c(CSCc2cc(C(=O)O)oc2C)o1`, the IC50 is 20 µM. Next, `CC1([N+](=O)[O-])CN(CCC(=O)O)CN(CCC(=O)O)C1`: 50 µM. With `O=S(=O)(Nc1ccc(NS(=O)(=O)c2cccs2)cc1)c1cccs1`, the IC50 is > 100 µM. Next, `O=C(O)CNC1CS(=O)(=O)CC1O` (configuration not stated): > 100 µM. On to `O=C(Nc1cc(S(=O)(=O)O)cc2cc(S(=O)(=O)O)cc(O)c12)c1ccccc1`, for which the IC50 amounted to 27 µM. `O=C(O)CCn1c(=O)[nH]c(=O)n(CCC(=O)O)c1=O`: the IC50 was found to be 33 µM. In the case of `O=C(O)CSc1nnc(-c2ccc(S(=O)(=O)N3CCOCC3)cc2)n1Cc1ccco1`, the IC50 was > 100 µM. Next, `O=S(=O)(NCc1ccccc1)c1ccc(S(=O)(=O)N(Cc2ccc(Cl)cc2)Cc2ccco2)cc1`: > 100 µM. `O=S(=O)(O)CC(O)CSc1nc2ccccc2s1` (configuration not stated): the IC50 was found to be 100 µM.

For the molecule `O=C(O)CC1OC(=O)c2cc3c(cc21)C(=O)OC3CC(=O)O` (configuration not stated), the IC50 was 11 µM.

For the molecule `O=C(Nc1nnc(CCS(=O)(=O)c2ccc3ccccc3c2)s1)c1ccccc1`, the IC50 was > 100 µM. Next, `O=C(Nc1ccccc1O)c1cc(S(=O)(=O)N2CCCCCC2)ccc1Cl`: > 100 µM; `O=C(Nc1ccccc1O)c1cccc(S(=O)(=O)N2CCCC2)c1`: > 100 µM. With `COc1cc(C=C2C(=O)OC3(CCCC3)OC2=O)cc(I)c1OCc1ccccc1C#N`, the IC50 is > 100 µM.

As to `NC(=O)CSc1nnc(-c2ccc(S(=O)(=O)N3CCCCC3)cc2)n1Cc1ccccc1`, the IC50 was > 100 µM.

Take `CS(=O)(=O)NCc1nnc(SCC(=O)N2CCCCCC2)n1-c1ccc(F)cc1`: the IC50 was > 100 µM. Then `O=C(O)CCn1c(=O)oc2cc(S(=O)(=O)O)ccc21`, with 80 µM; and `COc1cc(-c2nnn[nH]2)ccc1OCC(=O)O`, with > 100 µM. As to `NC(=O)CSc1nc2ccc(NC(=O)c3ccccc3C(=O)O)cc2s1`, the IC50 was determined as 27 µM. On to `CCOC(=O)c1cnc(SC(C)C(=O)O)nc1N` (configuration not stated), for which the IC50 is > 100 µM. Consider `CC1CCCCC1N(Cc1ccccc1F)S(=O)(=O)c1ccc(S(=O)(=O)N(C)C)cc1` (configuration not stated), for which the IC50 was > 100 µM. For the molecule `O=C(O)CN1C(=O)/C(=C2\SC(=S)NC2=O)c2ccccc21`, the IC50 stood at 9 µM. With `COC(=O)CSc1nnc(-c2ccc(NS(C)(=O)=O)cc2)n1C`, the IC50 is > 100 µM. Then `CCS(=O)(=O)N1CCN(S(=O)(=O)c2ccc(C(=O)O)cc2)CC1`, with > 100 µM; and `Cc1ccc(S(=O)(=O)Nc2ccc(NC(=O)CN3CCCCC3)c(Cl)c2)cc1`, with > 100 µM; and `CCN(Cc1ccccc1)S(=O)(=O)c1ccc(S(=O)(=O)NC2CCC(C)CC2)cc1` (configuration not stated), with > 100 µM.

Turning to `CC1CCc2c(sc3nc(C4CC4)n4c(SCC(=O)Nc5nccs5)nnc4c23)C1` (configuration not stated), the IC50 is > 100 µM.

As to `Nc1ccc(-c2ccc(N)c(S(=O)(=O)O)c2)cc1S(=O)(=O)O`, the IC50 was > 100 µM. Then `O=C(O)c1ccc(NS(=O)(=O)c2cccs2)cc1`, with > 100 µM; and `N#C/C(=C\c1ccc(-c2ccccc2[N+](=O)[O-])o1)S(=O)(=O)c1ccccc1`, with > 100 µM. With `O=C(O)CCCN1C(=O)/C(=C2/C(=O)N(CC(=O)O)c3ccccc32)SC1=S`, the IC50 was determined as 12 µM. Take `O=C(O)CSC1CCS(=O)(=O)C1` (configuration not stated): the IC50 is > 100 µM. Regarding `C/C(CCc1ccc2c(c1)OCO2)=N\N=C1/NC(=O)CC(C(=O)O)S1` (configuration not stated), the IC50 was 50 µM. Next, `Cc1c(OS(=O)(=O)c2ccccc2)cccc1OS(=O)(=O)c1ccccc1`: > 100 µM; `COc1cc(S(=O)(=O)NC2CCCCC2C)ccc1-n1cnnn1` (configuration not stated): > 100 µM. With `O=C(O)CSc1cccc(C(=O)O)c1`, the concentration for half-maximal inhibition (IC50) was 33 µM.

With `C=CCN1C(=S)S/C(=C/C=C2\Sc3ccccc3N2CCCS(=O)(=O)O)C1=S`, the IC50 was > 100 µM.

With `Cc1oc(C)c(C(=O)NCC(=O)O)c1C(=O)NCC(=O)O`, the IC50 worked out at 26 µM. For the molecule `Cn1c(SCC(N)=O)nnc1-c1ccc(NS(C)(=O)=O)cc1`, the IC50 is > 100 µM. Next, `O=C(O)CCc1ccc(-c2cccs2)n1CC(=O)O`: 9 µM. Take `CS(=O)(=O)Nc1nc(CC(=O)O)cs1`: the IC50 is > 100 µM. As for `O=C(O)CCS(=O)(=O)CCC(=O)O`, the IC50 worked out at 40 µM. In the case of `CCCNS(=O)(=O)c1ccc(OCC(=O)NCC2CCCO2)c(C)c1` (configuration not stated), the IC50 is > 100 µM. Next, `O=C(O)CN1C(=O)/C(=C2/C(=O)N(CC(=O)O)c3ccccc32)SC1=S`: 13 µM; `O=C(O)CCc1ccc(-c2ccc(F)cc2)n1CC(=O)O`: 9 µM; `O=C(O)CN1C(=O)/C(=C2\SC(=S)N(C(Cc3ccccc3)C(=O)O)C2=O)c2ccccc21` (configuration not stated): 3 µM. On to `O=C(O)CN1C(=O)/C(=C2\SC(=S)N(NC(=O)c3ccccc3O)C2=O)c2ccccc21`, for which the IC50 was 11 µM. Then `Cc1cc(C(=O)O)c(CSCc2cc(C(=O)O)c(C)o2)o1`, with > 100 µM.

With `Cc1oc(CSCC2CCCO2)cc1C(=O)O` (configuration not stated), the IC50 was determined as 16 µM. Then `CCS(=O)(=O)Nc1cc2c(C(C)=O)c(C)n(S(=O)(=O)CC)c2cc1C`, with > 100 µM.

A word on the IC50: it is the point on the concentration scale where inhibition reaches its midpoint.
